Assay results reported in the NIST ThermoML archive (doi:10.1016/j.jct.2012.01.013).

Assay: xn = mol fraction of the nth substance listed
Details: 101 kPa, Liquid; for viscosity: Falling or rolling sphere viscometry; for mass density: Vibrating tube method

CC(=O)[O-].Cn1cc[nH+]c1 [1-methylimidazolium acetate] + CCCO
Details | mass density, 293.15 K [kg/m3] | mass density, 298.15 K [kg/m3] | mass density, 303.15 K [kg/m3] | mass density, 308.15 K [kg/m3] | mass density, 313.15 K [kg/m3] | viscosity, 293.15 K [mPa·s] | viscosity, 298.15 K [mPa·s] | viscosity, 303.15 K [mPa·s] | viscosity, 308.15 K [mPa·s] | viscosity, 313.15 K [mPa·s]
x1 = 0.0504 | 827.73 | 823.56 | 819.35 | 815.11 | 810.83 | 2.22 | 1.974 | 1.753 | 1.566 | 1.402
x1 = 0.0999 | 850.08 | 845.8 | 841.47 | 837.11 | 832.72 | 2.359 | 2.088 | 1.855 | 1.656 | 1.485
x1 = 0.2005 | 891.09 | 886.69 | 882.25 | 877.78 | 873.27 | 2.757 | 2.429 | 2.152 | 1.918 | 1.718
x1 = 0.3005 | 926.35 | 921.89 | 917.41 | 912.89 | 908.35 | 3.202 | 2.795 | 2.481 | 2.206 | 1.973
x1 = 0.4013 | 957.27 | 952.8 | 948.29 | 943.76 | 939.2 | 3.698 | 3.231 | 2.851 | 2.517 | 2.25
x1 = 0.5014 | 984.26 | 979.77 | 975.25 | 970.72 | 966.17 | 4.234 | 3.682 | 3.228 | 2.852 | 2.536
x1 = 0.6501 | 1018.37 | 1013.89 | 1009.37 | 1004.85 | 1000.32 | 5.113 | 4.402 | 3.835 | 3.363 | 2.975
x1 = 0.7946 | 1046.51 | 1042.04 | 1037.55 | 1033.05 | 1028.55 | 6.141 | 5.212 | 4.517 | 3.947 | 3.482
x1 = 0.8952 | 1063.47 | 1059.02 | 1054.56 | 1050.08 | 1045.6 | 7.087 | 6.009 | 5.148 | 4.447 | 3.905

CC(=O)[O-].Cn1cc[nH+]c1 [1-methylimidazolium acetate] + CCO
Details | mass density, 293.15 K [kg/m3] | mass density, 298.15 K [kg/m3] | mass density, 303.15 K [kg/m3] | mass density, 308.15 K [kg/m3] | mass density, 313.15 K [kg/m3] | viscosity, 293.15 K [mPa·s] | viscosity, 298.15 K [mPa·s] | viscosity, 303.15 K [mPa·s] | viscosity, 308.15 K [mPa·s] | viscosity, 313.15 K [mPa·s]
x1 = 0.0495 | 823.45 | 819.02 | 814.55 | 810.04 | 805.49 | 1.366 | 1.236 | 1.123 | 1.024 | 0.938
x1 = 0.0964 | 851.37 | 846.85 | 842.29 | 837.69 | 833.06 | 1.578 | 1.421 | 1.268 | 1.153 | 1.052
x1 = 0.2004 | 902.14 | 897.55 | 892.91 | 888.25 | 883.55 | 1.995 | 1.789 | 1.612 | 1.458 | 1.325
x1 = 0.2986 | 940.21 | 935.59 | 930.94 | 926.27 | 921.57 | 2.485 | 2.212 | 1.981 | 1.784 | 1.614
x1 = 0.401 | 972.28 | 967.67 | 963.03 | 958.37 | 953.69 | 3.048 | 2.695 | 2.399 | 2.148 | 1.935
x1 = 0.4973 | 997.47 | 992.88 | 988.27 | 983.64 | 978.99 | 3.642 | 3.199 | 2.833 | 2.524 | 2.264
x1 = 0.6499 | 1029.38 | 1024.83 | 1020.26 | 1015.69 | 1011.1 | 4.686 | 4.061 | 3.576 | 3.146 | 2.798
x1 = 0.8003 | 1053.98 | 1049.49 | 1044.97 | 1040.45 | 1035.92 | 5.85 | 5.024 | 4.363 | 3.826 | 3.384
x1 = 0.8941 | 1066.93 | 1062.47 | 1057.99 | 1053.51 | 1049.01 | 6.855 | 5.847 | 5.04 | 4.357 | 3.829

CC(=O)[O-].Cn1cc[nH+]c1 [1-methylimidazolium acetate] + CCCCO
Details | mass density, 293.15 K [kg/m3] | mass density, 298.15 K [kg/m3] | mass density, 303.15 K [kg/m3] | mass density, 308.15 K [kg/m3] | mass density, 313.15 K [kg/m3] | viscosity, 293.15 K [mPa·s] | viscosity, 298.15 K [mPa·s] | viscosity, 303.15 K [mPa·s] | viscosity, 308.15 K [mPa·s] | viscosity, 313.15 K [mPa·s]
x1 = 0.0506 | 828.66 | 824.7 | 820.7 | 816.68 | 812.62 | – | 2.579 | 2.208 | 1.956 | 1.741
x1 = 0.1008 | 847.12 | 843.04 | 838.93 | 834.78 | 830.61 | 2.905 | 2.607 | 2.251 | 1.997 | 1.781
x1 = 0.1979 | 880.83 | 876.62 | 872.36 | 868.1 | 863.78 | 3.194 | 2.829 | 2.462 | 2.182 | 1.944
x1 = 0.2995 | 913.82 | 909.53 | 905.18 | 900.8 | 896.49 | 3.551 | 3.124 | 2.731 | 2.419 | 2.15
x1 = 0.4002 | 943.73 | 939.37 | 934.99 | 930.59 | 926.17 | 3.934 | 3.431 | 3.011 | 2.661 | 2.367
x1 = 0.4999 | 970.97 | 966.57 | 962.15 | 957.72 | 953.27 | 4.413 | 3.813 | 3.334 | 2.922 | 2.606
x1 = 0.6505 | 1008.21 | 1003.78 | 999.34 | 994.88 | 990.41 | 5.321 | 4.556 | 3.936 | 3.447 | 3.056
x1 = 0.7977 | 1040.65 | 1036.22 | 1031.77 | 1027.33 | 1022.9 | 6.49 | 5.533 | 4.739 | 4.068 | 3.538
x1 = 0.9013 | 1061.34 | 1056.91 | 1052.46 | 1048.01 | 1043.57 | 7.367 | 6.225 | 5.314 | 4.553 | 3.944

CC(=O)[O-].Cn1cc[nH+]c1 [1-methylimidazolium acetate] + CO
Details | mass density, 293.15 K [kg/m3] | mass density, 298.15 K [kg/m3] | mass density, 303.15 K [kg/m3] | mass density, 308.15 K [kg/m3] | mass density, 313.15 K [kg/m3] | viscosity, 293.15 K [mPa·s] | viscosity, 298.15 K [mPa·s] | viscosity, 303.15 K [mPa·s] | viscosity, 308.15 K [mPa·s] | viscosity, 313.15 K [mPa·s]
x1 = 0.05 | 841.99 | 837.15 | 832.29 | 827.39 | 822.47 | 0.818 | 0.758 | 0.704 | 0.657 | 0.615
x1 = 0.1008 | 880.4 | 875.53 | 870.63 | 865.7 | 860.74 | 1.049 | 0.964 | 0.889 | 0.822 | 0.763
x1 = 0.1994 | 936.43 | 931.59 | 926.72 | 921.83 | 916.92 | 1.568 | 1.424 | 1.317 | 1.189 | 1.093
x1 = 0.2997 | 974.67 | 969.87 | 965.05 | 960.22 | 955.37 | 2.134 | 1.936 | 1.747 | 1.585 | 1.445
x1 = 0.4 | 1002.67 | 997.94 | 993.18 | 988.42 | 983.63 | 2.806 | 2.428 | 2.193 | 1.991 | 1.822
x1 = 0.4979 | 1023.14 | 1018.47 | 1013.77 | 1009.07 | 1004.35 | 3.486 | 2.986 | 2.672 | 2.399 | 2.195
x1 = 0.651 | 1046.77 | 1042.19 | 1037.58 | 1032.97 | 1028.34 | 4.706 | 4.006 | 3.541 | 3.133 | 2.81
x1 = 0.8011 | 1063.57 | 1059.06 | 1054.54 | 1050 | 1045.45 | 6.119 | 5.207 | 4.509 | 3.927 | 3.454
x1 = 0.9012 | 1072.29 | 1067.83 | – | 1058.86 | 1054.36 | 7.161 | 6.065 | 5.2 | 4.485 | 3.912

CC(=O)[O-].Cn1cc[nH+]c1 [1-methylimidazolium acetate] + O
Details | mass density, 293.15 K [kg/m3] | mass density, 298.15 K [kg/m3] | mass density, 303.15 K [kg/m3] | mass density, 308.15 K [kg/m3] | mass density, 313.15 K [kg/m3] | viscosity, 293.15 K [mPa·s] | viscosity, 298.15 K [mPa·s] | viscosity, 303.15 K [mPa·s] | viscosity, 308.15 K [mPa·s] | viscosity, 313.15 K [mPa·s]
x1 = 0.0496 | 1050.26 | 1047.88 | 1045.35 | 1042.68 | 1039.87 | 2.361 | 2.05 | 1.797 | 1.59 | 1.419
x1 = 0.0999 | 1080.12 | 1076.77 | 1073.32 | 1069.76 | 1066.09 | 4.352 | 3.682 | 3.154 | 2.73 | 2.363
x1 = 0.2007 | 1099.43 | 1095.11 | 1090.72 | 1086.27 | 1081.75 | 8.567 | 7.087 | 5.755 | 4.731 | 4.082
x1 = 0.2985 | 1099.75 | 1095.2 | 1090.61 | 1085.97 | 1081.29 | 11.17 | 9.095 | 7.498 | 6.239 | 5.265
x1 = 0.3986 | 1096.26 | 1091.68 | 1087.07 | 1082.42 | 1077.74 | 11.62 | 9.434 | 7.776 | 6.521 | 5.535
x1 = 0.496 | 1092.17 | 1087.6 | 1083 | 1078.38 | 1073.73 | 11.27 | 9.212 | 7.655 | 6.419 | 5.459
x1 = 0.6467 | 1087.46 | 1082.93 | 1078.39 | 1073.83 | 1069.26 | 10.44 | 8.538 | 7.137 | 6.085 | 5.234
x1 = 0.7954 | 1083.49 | 1079.01 | 1074.5 | 1069.99 | 1065.48 | 9.391 | 7.858 | 6.641 | 5.663 | 4.895
x1 = 0.8987 | 1081.48 | 1077.03 | 1072.55 | 1068.08 | 1063.6 | 8.655 | 7.299 | 6.193 | 5.304 | 4.584
